According to patent US20250024846A1, “DEVELOPMENT OF FOOD-GRADE FUNGAL FERMENTATES WITH ANTIMICROBIAL ACTIVITY AND THE USE THEREOF” (Wisconsin Alumni Research Foundation, priority 2021, published 2025):

Tested on: Staphylococcus aureus
Experiment: Agar diffusion disc test (zone of inhibition)
Assay type: cell-based
Details: positive control, 100 μg/mL (FIG. 2b)
Method: Extraction of fermentates. Screening of the antimicrobial activity of NP extracts produced via liquid-liquid extraction with various organic solvents was performed. The tested organic solvents (i.e., ethyl acetate, chloroform, diethyl ether, dichloromethane, tetrahydrofuran, toluene, EMW (mixture of ethyl acetate:methanol:water), CEF (mixture of chloroform:ethyl acetate:formic acid), and BEA (mixture of benzene:ethanol:ammonia hydroxide)) are described in Table 2. 20 mL of NP1 or NP2 was reacted with 20 mL of an organic solvent in 50 mL conical tubes and incubated overnight at 25±2° C. with shaking at 150 rpm. The mixtures were centrifuged at 5000 g and the organic layer was transferred to a new 50 mL conical tube. The extracts were evaporated until dry under gentle airflow. Then, the extracts were reconstituted in 1 mL of methanol and filtered with a sterile 0.45 μm filtration unit. The methanol solution was tested for antimicrobial activity.

CC1(C)S[C@@H]2[C@H](NC(=O)[C@H](N)c3ccccc3)C(=O)N2[C@H]1C(=O)O [ampicillin]
zone of inhibition at 100 µg/mL: ~30 mm
